Data from US20220202811A1, “TREATMENT FOR RETINOIC ACID RECEPTOR-RELATED ORPHAN RECEPTOR Ɣ (RORƔ)-DEPENDENT CANCERS” (The Regents of the University of California, priority 2019, published 2022).
Entries after “also recorded” stand apart in the source; their conditions may differ.

Legend:
[1] = system: primary patient-derived PDX1356 organoids; test: PDX1356 organoid assay; type: cell-based, human
Procedure: PDX1535 organoids were derived from a patient of pancreatic cancer. Primary patient organoids were established by digesting patient-derived xenografts for 1 hour at 37° C. in RPMI containing 2.5% FBS, 5 mg/ml Collagenase II, and 1.25 mg/ml Dispase II, followed by passage through a […] mesh filter. Cells were plated at a density of 1.5×10^5 cells per 50 μl Matrigel. After domes were solidified, growth medium was added as follows: RPMI containing 50% Wnt3a conditioned media, 10% RSpondin1-conditioned media, 2.5% FBS, 50 ng/ml EGF, 5 mg/ml Insulin, 12.5 ng/ml hydrocortisone, and 14 μM Rho Kinase Inhibitor. After establishment, organoids were passaged and maintained. Briefly, organoids were isolated using Cell Recovery Solution (Corning 354253), then dissociated into single cell suspension with TrypLE Express (ThermoFisher 12604) supplemented with 25 μg/ml DNase I (Roche) and 14 μM Rho Kinase Inhibitor (Y-27632, Sigma). Cells were split 1:2 into 20 μl domes plated on pre-warmed 48-well plates. Domes were incubated at 37° C. for 5 min, then covered with human complete organoid feeding media without Wnt3a-conditioned media.
As shown in FIGS. 65-66, the anti-cancer effect of JTE-151 was also tested using the organoid assay on primary patient-derived PDX1356 pancreatic cancer cells. […] The volume of organoids was expressed as relative to control.

[2] = system: primary patient-derived PDX202 pancreatic cancer cells; test: PDX202 organoid assay; type: cell-based, human; conditions: 3 μM JTE-151 alone
Procedure: Moreover, the anti-cancer effect of JTE-151 was determined in an organoid assay using pancreatic cancer cells derived from mice bearing primary patient-derived xenografts.

PDX1356 xenografts = PDX1356 xenografts in mice; type: in vivo, human
From the text: (§1) Finally, the impact of JTE-151 was examined in vivo on mice bearing primary patient-derived pancreatic cancer xenografts (FIGS. 70-78). […] FIGS. 70-72 show 3 rounds of treatment in an experiment using mice bearing PDX1356 xenographs. The horizontal axis of the first panel in each of FIGS. 70-72 represents days of treatment, and the vertical axis represents tumor volume. The horizontal axis of each of the remaining panels represents the target (vehicle vs. JTE-151 mouse), and the vertical axis represents the specified measurement. JTE-151 was given at the regimen as specified in the figures. For example, in the first round (FIG. 70), JTE-151 was given at 90 mg/kg body weight once per day for the first 25 days, then twice per day from day 26 though day 40.

[3] = system: primary patient-derived xenografts; test: compilation of primary patient-derived xenografts, JTE-151; type: in vivo, human; conditions: JTE-151 vs vehicle, compilation (FIG. 78)
From the text: as §1
Two other primary patient-derived xenografts, PDX1535 (FIGS. 74 and 75) and PDX1424 (FIGS. 76 and 77), were tested using JTE-151 at 90 mg/kg once per day. […] Considering the reduced tumor mass and cell numbers, the absence of a significant change in tumor volume may be due to necrotic cells that remained for a while post drug treatment.

pancreatic cancer cell = test: in vivo tumor growth, antagonists of Table 2; design: species or system mouse; conditions: extent of growth suppression relative to control
[4] = system: KP^f/fC derived flank tumors; test: KP^f/fC flank tumors in immunocompetent mice; type: in vivo, mouse
[5] = system: organoids derived from adenosquamous tumors; test: adenosquamous tumor organoids (Msi2-Cre^ER/LSL-Myc); type: cell-based, mouse
From the text: (§2) A new Msi2-Cre^ER mouse model of aggressive pancreatic cancer was created, in which Cre is driven off of the Msi2 promoter and can be conditionally triggered by tamoxifen delivery. This Msi2-Cre^ER driver can be crossed into mice bearing distinct mutations such as Ras (leading to myeloproliferative neoplasia), p53, or Myc. When the Msi2-Cre^ER driver was crossed into an LSL-MyC^T58A model developed by Dr. Robert Wechsler-Reya at SBP/Rady, La Jolla, Calif. (Mollaoglu et al., 2017) (FIG. 79), it produced multiple cancer types including small cell lung cancer, choroid plexus tumors, and early stage kidney tumors.

[6] = system: organoids derived from acinar tumors; test: acinar tumor organoids (Msi2-Cre^ER/LSL-Myc); type: cell-based, mouse
From the text: as §2

[7] = system: primary murine PanIN derived organoids; test: PanIN derived organoids; type: cell-based
Procedure: Moreover, RORγ inhibitor SR2211 can block the growth of benign pancreatic intraepithelial neoplasia (PanIN) lesions. The effect of SR2211 was tested on dissociated primary murine PanIN derived organoids.

[8] = system: autochthonous tumor-bearing KP^f/fC mice; test: autochthonous KP^f/fC survival study
Fast Growing (FG) cells = test: Fast Growing (FG) cell xenografts in mice; type: in vivo, human
From the text: (§3) FIG. 45 is a compilation of all data from mice bearing PDX or FG cancer xenographs, including PDX1424, PDX1444, and FG.

[9] = system: PDX1424, PDX1444, and FG cells; test: compilation of PDX or FG xenografts, AZD-0284; type: in vivo, human
From the text: as §3

[10] = first round: JTE-151 90 mg/kg once per day for 25 days, then twice per day to day 40
[11] = third round: JTE-151 90 mg/kg once per day
[12] = SR2211 in combination with gemcitabine
[13] = AZD-0284 in combination with gemcitabine
[14] = compilation of all data (FIG. 45)
[15] = especially at 90 mg/kg AZD-0284 (FIG. 44)

Cc1ccc(NC(=O)C[C@H](CCC(=O)O)c2noc([C@H]3C[C@@H](CC(C)(C)C)C3)c2C2CC2)c(Cl)c1 [JTE-151, (4S)-6-[(2-chloro-4-methylphenyl)amino]-4-{4-cyclopropyl-5-[cis-3-(2,2-dimethylpropyl)cyclobutyl]isoxazol-3-yl}-6-oxohexanoic acid]
organoid growth in volume ([1]; 0.3 μM JTE-151 + 0.05 nM gemcitabine): visibly decreased; also recorded: inhibited | organoid growth in volume ([1]; 0.3 μM JTE-151 alone): visibly decreased; also recorded: inhibited | organoid volume ([1]; 3 μM JTE-151 + 0.05 nM gemcitabine): visibly reduced; also recorded: inhibited | organoid volume ([1]; 3 μM JTE-151 alone): visibly reduced; also recorded: inhibited | organoid growth [2]: inhibited | tumor growth rate (PDX1356 xenografts; 3 experiments, slope compared to control (FIG. 73)): generally slower | EpCam+ tumor epithelial cells (PDX1356 xenografts; [10]): lower | EpCam+/CD133+ tumor stem cells (PDX1356 xenografts; [10]): lower | cell count (PDX1356 xenografts; [10]): decreased | tumor growth (PDX1356 xenografts; [10]): reduced | EpCam+ tumor epithelial cells (PDX1356 xenografts; [11]): reduced | EpCam+/CD133+ tumor stem cells (PDX1356 xenografts; [11]): reduced | EpCam+ tumor epithelial cells [3]: significantly reduced | EpCam+/CD133+ tumor stem cells [3]: significantly reduced | cell number [3]: significantly reduced | tumor mass [3]: significantly reduced

OC(c1ccc(-c2ccc(CN3CCN(Cc4ccncc4)CC3)cc2)c(F)c1)(C(F)(F)F)C(F)(F)F [SR2211]
in vivo tumor growth (pancreatic cancer cell): ✓✓ (dose response observed; growth suppressed by less than 4-fold relative to control) | depletion in CD133+ cells ([4]; SR2211 alone): 3 fold | depletion in Msi+ cells ([4]; SR2211 alone): 3 fold | depletion of CD133+ cells [4, 12]: 11 fold | depletion of Msi2+ cells [4, 12]: 6 fold | sensitivity of organoids [5]: sensitive | organoid growth ([6]; 3 μM or 6 μM SR2211): significantly reduced | sensitivity of organoids ([6]; acinar tumors): sensitive | organoid number [7]: reduced | organoid volume [7]: reduced | mice alive ([8]; 25 days after the initiation of treatment): 75% | mice alive ([8]; 45 days after treatment initiation): 50% | Hazard ratio ([8]; SR2211 vs vehicle): 0.16 | median survival ([8]; treated daily from 8 weeks of age until moribund): 38.5 days | decreased risk of death ([8]; vs vehicle): 6 fold

CC(=O)N1Cc2cc(S(C)(=O)=O)ccc2[C@@H]1C(=O)Nc1ccc(C(O)(C(F)(F)F)C(F)(F)F)cc1 [AZD-0284]
organoid volume ([1]; 3 μM AZD-0284 + 0.05 nM gemcitabine): significant reduction; also recorded: effectively inhibited | organoid volume ([1]; 3 μM AZD-0284 alone): significant reduction; also recorded: effectively inhibited | organoid volume ([1]; 6 μM AZD-0284 + 0.05 nM gemcitabine): significant reduction; also recorded: effectively inhibited | organoid volume ([1]; 6 μM AZD-0284 alone): significant reduction; also recorded: effectively inhibited | EpCam+/CD133+ tumor stem cells (Fast Growing (FG) cells; 90 mg/kg AZD-0284): decrease | total cell number (Fast Growing (FG) cells; 90 mg/kg AZD-0284): decrease | EpCam+/CD133+ tumor stem cells (Fast Growing (FG) cells; [13]): decrease | total cell number (Fast Growing (FG) cells; [13]): decrease | EpCam+ tumor epithelial cells [9, 14]: decrease | EpCam+/CD133+ tumor stem cells [9, 14]: decrease | cell number [9, 14]: decrease | EpCam+ tumor epithelial cells [9, 15]: reduced | EpCam+/CD133+ tumor stem cells [9, 15]: reduced
